In PubChem BioAssay (NCI) one finds TGI and GI50 data, which are given here for nine molecules.

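Following 48 hours of exposure in 96-well plates, responses at five concentrations were used to interpolate endpoints linearly. GI50 = concentration required for 50% inhibition of growth. At the TGI there is no net growth.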 Bounds are passed on as bounds.

Assay in all cases: growth of human tumour cells (NCI), 48 h
For assay [1], the system named is CAKI-1 renal.
The subject of assay [2] is COLO 205 colon.
In assay [3] the test system is HT29 colon.
The test system of assay [4] is IGROV1 ovarian.
The test system of assay [5] is MOLT-4 leukemia.
The subject of assay [6] is OVCAR-3 ovarian.
Assay [7] has as its system SF-539 CNS.
In assay [8] the test system is SK-MEL-2 melanoma.
Assay [9] concerns SK-MEL-28 melanoma.
Assay [10] concerns SK-MEL-5 melanoma.

For `Cc1cccc(C(C)(C)C)c1NC(=O)C(C#N)C1=C(Cl)C(=O)c2ccccc2C1=O` (stereo not drawn), the TGI in assay [1] came out at 31.5 µM; in [2] it was 35 µM; in [3], 40.7 µM; in assay [4] it was 33 µM; in assay [5] it was 22.6 µM; in [6], 31.4 µM. Further, the TGI in assay [7] is 32.5 µM; in [8] it was 30.7 µM; in [9] it was 31.5 µM; in assay [10], 31.5 µM.

On to `COc1ccc(C(=O)/C=C/c2sc(Cl)nc2Cl)cc1`, for which the GI50 in assay [1] was 1.7 µM; in assay [2], 2.28 µM; in [3], 1.89 µM; in assay [4], 0.368 µM; in assay [5], 0.369 µM; in assay [6] it was 1.84 µM. In addition, the GI50 in assay [7] is 1.56 µM; in [8] it was 11.1 µM; in assay [9] it was 2.57 µM; in assay [10], 1.53 µM. Moreover, the TGI in assay [1] amounted to 5.45 µM; in [2], 6.74 µM; in [3], 4.66 µM; in assay [4], 1.91 µM; in assay [5], 13.6 µM; in assay [6], 3.48 µM. The TGI in [7] came out at 4.26 µM; in assay [8], 35.5 µM; in [9], 8.17 µM; in assay [10], 4.15 µM.

As to `CC(C)C[C@H](CC(=O)O)C(=O)N[C@@H](Cc1c[nH]c2ccccc12)C(=O)N[C@@H](C)c1ccccc1`, the GI50 in assay [1], in assay [2], in assay [3], in assay [4], in [5] and in [6] was above 25 µM in each case. Moreover, the GI50 in [7], in assay [8], in [9] and in [10] was above 25 µM each time. Moreover, the TGI in assay [1], in assay [2], in [3], in [4], in assay [5] and in [6] was above 25 µM in each case. In addition, the TGI in assay [7], in [8], in assay [9] and in assay [10] was above 25 µM each time.

Regarding `O=C(COc1ccc(/C=C2\Oc3ccc4ccccc4c3C2=O)cc1)c1ccc([N+](=O)[O-])cc1`, the GI50 in assay [1] is 18.8 µM; in assay [2], 11.2 µM; in assay [3], 9.05 µM; in assay [4] it was 4.06 µM; in assay [5], 1.87 µM; in [6], 4.59 µM. The GI50 is 13.8 µM in assay [7], 15.5 µM in assay [8], 19.4 µM in assay [9] and 13.2 µM in [10]. Further, the TGI in assay [1] amounted to 35.4 µM; in [2], 33.5 µM; in [3] it was 24 µM; in assay [4], 34.1 µM; in assay [5], 5.56 µM; in assay [6] it was 17.4 µM. Moreover, the TGI in assay [7] turned out to be 28.1 µM; in assay [8], 73.7 µM; in assay [9], 40.2 µM; in assay [10], 28.9 µM.

On to `OCC1NC(COC2OC(CO)C(O)C(O)C2O)C(O)C(O)C1O` (stereo not drawn), for which the TGI in assay [1], in assay [2], in [3], in assay [4], in assay [5] and in assay [6] was above 100 µM each time. The TGI in [7], in assay [8], in [9] and in assay [10] was above 100 µM throughout.

On to `N#C/C(=C\c1ccc(O)c(O)c1)C(=O)NCc1ccc(C(F)(F)F)cc1`, for which the TGI amounted to 1.81 µM in assay [1]; 43.3 µM in assay [2]; 50.7 µM in assay [3]; 14.4 µM in [4]; 31.7 µM in assay [5]; 1.11 µM in assay [6]. Besides, the TGI in [7] was found to be 17.8 µM; in assay [8], 6.34 µM; in assay [9], 57 µM; in assay [10], 24.4 µM. The GI50 in [2] is 12.1 µM; in [3], 15.7 µM; in assay [4], 2.4 µM; in [5] it was 3.92 µM; in [6], 0.507 µM; in [7], 5.5 µM. For the same molecule, the GI50 in assay [9] was 16.9 µM; in assay [10], 8.09 µM.

On to `c1ccc2c(c1)[nH]c1cnc3c4ncccc4[nH]c3c12`, for which the TGI in assay [1] was above 100 µM; in assay [2], above 100 µM; in assay [3], above 100 µM; in assay [4] it was above 100 µM; in assay [5], 97.6 µM; in assay [6] it was above 100 µM. Besides, the TGI in assay [7], in assay [8], in assay [9] and in assay [10] was above 100 µM throughout.

For `COc1ccc(-c2nn(-c3cccc(Cl)c3)cc2/C=C2\NC(=S)N(c3ccc(Cl)cc3)C2=O)cc1`, the GI50 is 4.79 µM in assay [1]; 5.59 µM in assay [2]; 4.99 µM in [3]; 4.99 µM in [4]; 4.47 µM in assay [5]; 5.54 µM in assay [6]. In addition, the GI50 in assay [7] was 8.22 µM; in assay [8], 4.15 µM; in [9], 4.1 µM; in assay [10], 4.22 µM. The TGI in assay [1] came to 13.2 µM; in assay [2] it was 11 µM; in assay [3], 10.6 µM; in [4], 10.1 µM; in assay [5], 10.7 µM; in assay [6], 12.9 µM. Further, the TGI is above 25 µM in [7], 9.61 µM in assay [8], 7.97 µM in assay [9] and 11 µM in assay [10].

On to `O/N=C1/CCCC/C1=C/C=C/c1ccccc1`, for which the TGI in [1] was above 100 µM; in assay [2], 35.4 µM; in [3] it was 32.9 µM; in assay [4], 36.8 µM; in [5] it was 67.1 µM; in assay [6], 35.2 µM. Also, the TGI worked out at 38.3 µM in assay [7], 36.6 µM in [8], 10.2 µM in assay [9] and 30.2 µM in [10].
